Measured values published in US20090264433A1, “Compounds, Compositions and Methods Comprising Triazine Derivatives” (Institute for OneWorld Health, priority 2008, published 2009).

Target: T1, CFTR channel in human colonic T84 cells (Homo sapiens, UniProt P13569)
T1 construct: results in the phosphorylation and opening of CFTR anion channels; host or cells: human colonic T84 cells
Assay: T84 assay (FLIPR membrane potential dye, forskolin/IBMX-stimulated CFTR)
Assay type: cell-based
Settings: average of at least 2 runs unless annotated n = 1
In short: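 T84 cells (25,000/well, grown overnight) were washed in HBSS with 10 mM Hepes, then loaded with FLIPR Red membrane potential dye for 45 min with or without compound. CFTR was stimulated with 10 μM forskolin plus 100 μM IBMX after a 10 s baseline. Depolarization was tracked as a fluorescence increase, read every second for 150 s.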

T1 sequence (P13569 whole entry): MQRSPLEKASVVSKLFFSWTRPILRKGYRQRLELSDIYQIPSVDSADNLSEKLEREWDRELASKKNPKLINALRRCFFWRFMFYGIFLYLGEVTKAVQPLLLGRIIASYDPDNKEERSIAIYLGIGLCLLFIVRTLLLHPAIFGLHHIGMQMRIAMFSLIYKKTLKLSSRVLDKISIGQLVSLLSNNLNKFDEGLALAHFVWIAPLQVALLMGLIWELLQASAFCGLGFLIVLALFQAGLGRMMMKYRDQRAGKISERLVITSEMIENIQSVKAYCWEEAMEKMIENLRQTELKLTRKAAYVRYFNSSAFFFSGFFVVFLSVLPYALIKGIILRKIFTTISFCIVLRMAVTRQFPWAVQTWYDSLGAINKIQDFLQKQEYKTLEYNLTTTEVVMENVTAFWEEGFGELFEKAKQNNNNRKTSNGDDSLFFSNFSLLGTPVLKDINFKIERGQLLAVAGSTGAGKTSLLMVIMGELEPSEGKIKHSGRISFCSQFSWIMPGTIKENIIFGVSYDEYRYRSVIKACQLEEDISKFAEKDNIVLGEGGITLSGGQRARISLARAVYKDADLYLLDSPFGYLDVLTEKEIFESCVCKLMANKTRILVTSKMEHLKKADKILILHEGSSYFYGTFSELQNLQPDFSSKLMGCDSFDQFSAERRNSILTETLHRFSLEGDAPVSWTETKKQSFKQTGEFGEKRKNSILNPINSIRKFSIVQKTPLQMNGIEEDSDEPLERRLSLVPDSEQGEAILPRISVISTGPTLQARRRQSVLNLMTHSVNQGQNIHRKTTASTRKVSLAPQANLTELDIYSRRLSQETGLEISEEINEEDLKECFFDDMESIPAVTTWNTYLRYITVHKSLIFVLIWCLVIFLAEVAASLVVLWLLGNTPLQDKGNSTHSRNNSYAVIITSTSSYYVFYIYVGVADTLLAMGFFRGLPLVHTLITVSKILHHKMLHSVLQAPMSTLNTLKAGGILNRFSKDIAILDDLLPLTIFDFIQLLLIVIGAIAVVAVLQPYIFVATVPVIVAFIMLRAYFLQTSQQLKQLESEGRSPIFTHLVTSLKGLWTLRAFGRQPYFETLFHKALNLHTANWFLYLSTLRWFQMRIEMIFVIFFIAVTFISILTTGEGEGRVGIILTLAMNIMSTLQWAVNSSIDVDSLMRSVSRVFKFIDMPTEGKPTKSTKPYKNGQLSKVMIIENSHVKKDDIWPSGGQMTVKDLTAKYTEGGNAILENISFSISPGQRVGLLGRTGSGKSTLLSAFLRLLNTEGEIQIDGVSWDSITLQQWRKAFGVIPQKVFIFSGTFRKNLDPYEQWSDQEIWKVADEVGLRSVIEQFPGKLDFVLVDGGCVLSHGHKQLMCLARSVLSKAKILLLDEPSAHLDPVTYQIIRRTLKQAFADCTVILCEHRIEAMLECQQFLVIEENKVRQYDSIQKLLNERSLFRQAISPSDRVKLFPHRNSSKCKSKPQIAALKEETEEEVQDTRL

| SMILES | IC50 [µM] |
| --- | --- |
| Oc1c(Br)cc(-c2cnc(COc3ccc(Cl)cc3Cl)nn2)cc1Br [Compound 42, 2,6-dibromo-4-(3-((2,4-dichlorophenoxy)methyl)-1,2,4-triazin-6-yl)phenol] | 11 |
| Oc1c(Cl)cc(-c2cnc(OCc3ccc(CNC(CN4CCOCC4)c4ccccc4)cc3)nn2)cc1Cl (stereo not shown) [Compound 157, 2,6-dichloro-4-(3-(4-((2-morpholino-1-phenylethylamino)methyl)benzyloxy)-1,2,4-triazin-6-yl)phenol] | 2.27 |
| Cc1ccc(Cl)c(OCc2ncc(-c3cc(Br)c(O)c(Br)c3)nn2)c1 [Compound 34, 2,6-dibromo-4-(3-((2-chloro-5-methylphenoxy)methyl)-1,2,4-triazin-6-yl)phenol] | 11.6 |
| Oc1c(Cl)cc(-c2cnc(COc3cccc(Cl)c3Cl)nn2)cc1Cl [Compound 37, 2,6-dichloro-4-(3-((2,3-dichlorophenoxy)methyl)-1,2,4-triazin-6-yl)phenol] | 8.61 |
| Oc1c(Br)cc(-c2cnc(OC(c3cccc(C(F)(F)F)c3)c3cccc(C(F)(F)F)c3)nn2)cc1Br [Compound 109, 4-(3-(bis(3-(trifluoromethyl)phenyl)methoxy)-1,2,4-triazin-6-yl)-2,6-dibromophenol] | 12.2 |
| Oc1c(Br)cc(-c2cnc(OCc3cccc(Cl)c3Cl)nn2)cc1Br [Compound 23, 2,6-dibromo-4-(3-(2,3-dichlorobenzyloxy)-1,2,4-triazin-6-yl)phenol] | 2.7 |
| Oc1c(Br)cc(-c2cnc(OCc3cccc(Oc4ccccc4)c3)nn2)cc1Br [Compound 27, 2,6-dibromo-4-(3-(3-phenoxybenzyloxy)-1,2,4-triazin-6-yl)phenol] | 0.56 |
| Cc1cncc(Oc2ccc(CN(C)Cc3ccc(COc4ncc(-c5cc(Cl)c(O)c(Cl)c5)nn4)cc3)cc2)n1 [Compound 209, 2,6-dichloro-4-(3-(4-((methyl(4-(6-methylpyrazin-2-yloxy)benzyl)amino)methyl)benzyloxy)-1,2,4-triazin-6-yl)phenol] | 4.8 |
| Oc1c(Br)cc(-c2cnc(OC3c4ccccc4Oc4ccccc43)nn2)cc1Br [Compound 91, 4-(3-(9H-xanthen-9-yloxy)-1,2,4-triazin-6-yl)-2,6-dibromophenol] | 4.09 |
| Oc1c(Cl)cc(-c2cnc(OCc3ccc(CNCc4ccc(C(F)(F)F)nc4)cc3)nn2)cc1Cl [Compound 169, 2,6-dichloro-4-(3-(4-(((6-(trifluoromethyl)pyridin-3-yl)methylamino)methyl)benzyl-oxy)-1,2,4-triazin-6-yl)phenol] | 7.77 |
| Cc1cc(Cl)ccc1OCc1ncc(-c2cc(Br)c(O)c(Br)c2)nn1 [Compound 39, 2,6-dibromo-4-(3-((4-chloro-2-methylphenoxy)methyl)-1,2,4-triazin-6-yl)phenol] | 10.9 |
| CN(Cc1ccc(COc2ncc(-c3cc(Cl)c(O)c(Cl)c3)nn2)cc1)Cc1cccc(Oc2ccccn2)c1 [Compound 186, 2,6-dichloro-4-(3-(4-((methyl(3-(pyridin-2-yloxy)benzyl)amino)methyl)benzyloxy)-1,2,4-triazin-6-yl)phenol] | 6.97 |
| O=C(c1ccccc1Cl)N1CCN(Cc2ccc(COc3ncc(-c4cc(Cl)c(O)c(Cl)c4)nn3)cc2)CC1 [Compound 220, (2-chlorophenyl)(4-(4-((6-(3,5-dichloro-4-hydroxyphenyl)-1,2,4-triazin-3-yloxy)methyl)benzyl)piperazin1-yl)methanone] | 1.89 |
| CCN(CC)CC(NCc1ccc(COc2ncc(-c3cc(Cl)c(O)c(Cl)c3)nn2)cc1)c1ccccc1 (stereo not shown) [Compound 190, 2,6-dichloro-4-(3-(4-((2-(diethylamino)-1-phenylethylamino)methyl)benzyloxy)-1,2,4-triazin-6-yl)phenol] | 21 |
| CC(=O)N1CCN(Cc2ccc(COc3ncc(-c4cc(Cl)c(O)c(Cl)c4)nn3)cc2)CC1 [Compound 216, 1-(4-(4-((6-(3,5-dichloro-4-hydroxyphenyl)-1,2,4-triazin-3-yloxy)methyl)benzyl)piperazin-1-yl)ethanone] | 23.2 |
| Oc1c(Br)cc(-c2cnc(OCCc3cccc4ccccc34)nn2)cc1Br [Compound 1, 2,6-dibromo-4-(3-(2-(naphthalen-1-yl)ethoxy)-1,2,4-triazin-6-yl)phenol] | 0.26 |

| SMILES | IC50 [µM] |
| --- | --- |
| CN(Cc1ccc(COc2ncc(-c3cc(Cl)c(O)c(Cl)c3)nn2)cc1)Cc1cncc(Br)c1 [Compound 170, 4-(3-(4-((((5-bromopyridin-3-yl)methyl)(methyl)amino)methyl)benzyloxy)-1,2,4-triazin-6-yl)-2,6-dichlorophenol] | 2.81 |
| CN(Cc1ccc(COc2ncc(-c3cc(Cl)c(O)c(Cl)c3)nn2)cc1)Cc1cccc2ccccc12 [Compound 181, 2,6-dichloro-4-(3-(4-((methyl(naphthalen-1-ylmethyl)amino)methyl)benzyl-oxy)-1,2,4-triazin-6-yl)phenol] | 9.15 |
| Oc1c(Cl)cc(-c2cnc(OCc3ccc(CN4CCCc5ccccc54)cc3)nn2)cc1Cl [Compound 182] | 11.8 |
| Cc1ccc(C(C)C)cc1OCc1ncc(-c2cc(Br)c(O)c(Br)c2)nn1 [Compound 53, 2,6-dibromo-4-(3-((5-isopropyl-2-methylphenoxy)methyl)-1,2,4-triazin-6-yl)phenol] | 20.1 |
| Oc1c(Cl)cc(-c2cnc(OCc3ccc(CN4CCN(Cc5cccnc5)CC4)cc3)nn2)cc1Cl [Compound 158, 2,6-dichloro-4-(3-(4-((4-(pyridin-3-ylmethyl)piperazin-1-yl)methyl)benzyloxy)-1,2,4-triazin-6-yl)phenol] | 14.2 |
| OCCN(Cc1ccc(COc2ncc(-c3cc(Cl)c(O)c(Cl)c3)nn2)cc1)Cc1ccccc1Cl [Compound 172, 2,6-dichloro-4-(3-(4-(((2-chlorobenzyl)(2-hydroxyethyl)amino)methyl)benzyl-ozyloxy)-1,2,4-triazin-6-yl)phenol] | 3.36 |
| COc1ccc(Cl)cc1COc1ncc(-c2cc(Br)c(O)c(Br)c2)nn1 [Compound 5, 2,6-dibromo-4-(3-(5-chloro-2-methoxybenzyloxy)-1,2,4-triazin-6-yl)phenol] | 0.7 |
| Oc1c(Cl)cc(-c2cnc(OCc3ccc(F)cc3F)nn2)cc1Cl [Compound 148, 2,6-dichloro-4-(3-(2,4-difluorobenzyloxy)-1,2,4-triazin-6-yl)phenol] | 3.97 |
| Oc1c(Cl)cc(-c2cnc(OCc3ccc(Cl)cc3)nn2)cc1Cl [Compound 113, 2,6-dichloro-4-(3-(4-chlorobenzyloxy)-1,2,4-triazin-6-yl)phenol] | 1.3 |
| Cc1ccc(OCc2ncc(-c3cc(Cl)c(O)c(Cl)c3)nn2)c2c1CCC2 [Compound 41, 2,6-dichloro-4-(3-((7-methyl-2,3-dihydro-1H-inden-4-yloxy)methyl)-1,2,4-triazin-6-yl)phenol] | 10.6 |
| CC1(C)Cc2cccc(OCc3ncc(-c4cc(Cl)c(O)c(Cl)c4)nn3)c2O1 [Compound 50, 2,6-dichloro-4-(3-((2,2-dimethyl-2,3-dihydrobenzofuran-7-yloxy)methyl)-1,2,4-triazin-6-yl)phenol] | 15.4 |
| OCCN(Cc1ccc(COc2ncc(-c3cc(Cl)c(O)c(Cl)c3)nn2)cc1)Cc1cccc(OCc2ccccc2Cl)c1 [Compound 223, 2,6-dichloro-4-(3-(4-(((3-(2-chlorobenzyloxy)benzyl)(2-hydroxyethyl)amino)methyl)benzyloxy)-1,2,4-triazin-6-yl)phenol] | 3.55 |
| Oc1c(Br)cc(-c2cnc(OCc3ccccc3Cl)nn2)cc1Br [Compound 18, 2,6-dibromo-4-(3-(2-chlorobenzyloxy)-1,2,4-triazin-6-yl)phenol] | 1.18 |
| Oc1c(Cl)cc(-c2cnc(OCCNc3ccccc3)nn2)cc1Cl [Compound 125, 2,6-dichloro-4-(3-(2-(phenylamino)ethoxy)-1,2,4-triazin-6-yl)phenol] | 25.8 |
| Oc1c(Br)cc(-c2cnc(OCc3cc(Br)cs3)nn2)cc1Br [Compound 107, 2,6-dibromo-4-(3-((4-bromothiophen-2-yl)methoxy)-1,2,4-triazin-6-yl)phenol] | 0.44 |
